The text below walks through data of US11702404B2, “GLP-1R modulating compounds” (priority 2019, dated 2023).

Like-named read-outs stand apart in the source and are kept apart here.

For one series, the target named is GLP-1R (Homo sapiens, UniProt P43220). Nature of the series: GLP-1R activation: cAMP increase in CHO cells stably expressing GLP-1R. Type of series: cell-based.
Series [1] in a line: Microsomal stability, human liver microsomes (predicted hepatic clearance). The settings on record: predicted from in vitro microsomal stability data.
[2] abbreviates: cAMP increase, CHO cells stably expressing GLP-1R, 10 point dose response, 30 minutes incubation, read-out: EC50.

Chain of GLP-1R (P43220 24-463): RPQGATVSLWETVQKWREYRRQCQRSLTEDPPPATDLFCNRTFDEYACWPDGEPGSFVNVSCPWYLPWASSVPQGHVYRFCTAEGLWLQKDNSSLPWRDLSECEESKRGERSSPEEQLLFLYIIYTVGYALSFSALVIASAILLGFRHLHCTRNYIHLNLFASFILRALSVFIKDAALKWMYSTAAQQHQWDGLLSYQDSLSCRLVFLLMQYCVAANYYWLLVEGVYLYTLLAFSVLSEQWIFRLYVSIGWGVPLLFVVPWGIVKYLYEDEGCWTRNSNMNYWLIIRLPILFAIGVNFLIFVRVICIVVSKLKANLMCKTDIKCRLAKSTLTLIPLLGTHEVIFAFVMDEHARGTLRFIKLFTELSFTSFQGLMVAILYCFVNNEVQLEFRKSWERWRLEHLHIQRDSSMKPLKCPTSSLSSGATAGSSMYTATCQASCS

As for `N#Cc1cc(F)c(COc2ncc(F)c(-c3cc(F)c(Cc4nc5ccc(C(=O)O)cc5n4C[C@@H]4CCO4)cc3F)n2)cc1F` [Example 878], the EC50 on GLP-1R (setting [2]) is 0.78 nM. In addition, in series [1], the “Predicted Hepatic Clearance (Pred. Cl.)” value is 8.83 mL/min/kg.

As for `N#Cc1ccc(COc2ncc(F)c(-c3cc(F)c(Cc4nc5ccc(C(=O)O)cc5n4C[C@@H]4CCO4)cc3F)n2)c(F)c1` [Example 879, 2-[[4-[2-[(4-cyano-2-fluoro-phenyl)methoxy]-5-fluoro-pyrimidin-4-yl]-2,5-difluoro-phenyl]methyl]-3-[[(2S)-oxetan-2-yl]methyl]benzimidazole-5-carboxylic acid], the EC50 on GLP-1R (setting [2]) was determined as 0.51 nM. Further, the “Predicted Hepatic Clearance (Pred. Cl.)” value in series [1] was 6 mL/min/kg.

Regarding `N#Cc1ccc(COc2ncc(F)c(-c3ccc(Cc4nc5c(F)cc(C(=O)O)cc5n4C[C@@H]4CCO4)c(F)c3)n2)c(F)c1` [Example 880], the EC50 at GLP-1R (setting [2]) worked out at 0.26 nM. In addition, the “Predicted Hepatic Clearance (Pred. Cl.)” value in series [1] is 7.5 mL/min/kg.

As to `N#Cc1ccc(COc2ncc(F)c(-c3ccc(Cc4nc5c(F)cc(C(=O)O)cc5n4C[C@@H]4CCO4)cc3F)n2)c(F)c1` [Example 881], the EC50 on GLP-1R (setting [2]) was 0.29 nM. Moreover, the “Predicted Hepatic Clearance (Pred. Cl.)” value in series [1] is 8.83 mL/min/kg.

For the compound `N#Cc1ccc(COc2ncc(F)c(-c3ccc(Cc4nc5c(F)cc(C(=O)O)cc5n4C[C@@H]4CCO4)cc3)n2)c(F)c1` [Example 882], the EC50 at GLP-1R (setting [2]) came to 0.18 nM. Moreover, in series [1], the “Predicted Hepatic Clearance (Pred. Cl.)” value was 6.17 mL/min/kg.

Take `N#Cc1ccc(COc2ncc(F)c(-c3cc(F)c(Cc4nc5c(F)cc(C(=O)O)cc5n4CC4(CF)CC4)cc3F)n2)c(F)c1` [Example 883]: the EC50 at GLP-1R (setting [2]) came out at 0.3 nM. Also, the “Predicted Hepatic Clearance (Pred. Cl.)” value in series [1] was 7.5 mL/min/kg.

Regarding `O=C(O)c1cc(F)c2nc(Cc3cc(F)c(-c4nc(OCc5ccc(C(F)(F)F)cc5F)ncc4F)cc3F)n(C[C@@H]3CCO3)c2c1` [Example 884], the EC50 at GLP-1R (setting [2]) turned out to be 0.19 nM. Further, the “Predicted Hepatic Clearance (Pred. Cl.)” value in series [1] is 3.17 mL/min/kg.

`N#Cc1cc(F)c(COc2ncc(F)c(-c3cc(F)c(Cc4nc5c(F)cc(C(=O)O)cc5n4C[C@@H]4CCO4)cc3F)n2)cc1F` [Example 885]: the EC50 on GLP-1R (setting [2]) is 0.22 nM. The “Predicted Hepatic Clearance (Pred. Cl.)” value in series [1] was 9.17 mL/min/kg.

For the compound `N#Cc1ccc(COc2ncc(F)c(-c3cc(F)c(Cc4nc5c(F)cc(C(=O)O)cc5n4C[C@@H]4CCO4)cc3F)n2)c(F)c1` [Example 886], on GLP-1R (setting [2]), the EC50 turned out to be 0.18 nM. Further, in series [1], the “Predicted Hepatic Clearance (Pred. Cl.)” value is 5.83 mL/min/kg.

With `CC(C)(C)C(=O)N1CC[C@@H]1Cn1c(Cc2ccc(-c3cccc(OCc4ccc(C#N)cc4F)n3)cc2F)nc2ccc(C(=O)O)cc21` [Example 887, 2-[[4-[6-[(4-cyano-2-fluoro-phenyl)methoxy]-2-pyridyl]-2-fluoro-phenyl]methyl]-3-[[(2R)-1-(2,2-dimethylpropanoyl)azetidin-2-yl]methyl]benzimidazole-5-carboxylic acid], the EC50 at GLP-1R (read-out: EC50) amounted to 8310 nM. The “Predicted Hepatic Clearance (Pred. Cl.)” value in series [1] is 8.83 mL/min/kg.

For the compound `CS(=O)(=O)N1CC[C@@H]1Cn1c(Cc2ccc(-c3cccc(OCc4ccc(C#N)cc4F)n3)cc2F)nc2ccc(C(=O)O)cc21` [Example 888, 2-[[4-[6-[(4-cyano-2-fluoro-phenyl)methoxy]-2-pyridyl]-2-fluoro-phenyl]methyl]-3-[[(2R)-1-methylsulfonylazetidin-2-yl]methyl]benzimidazole-5-carboxylic acid], the EC50 on GLP-1R (read-out: EC50) is 6.01 nM. Besides, the “Predicted Hepatic Clearance (Pred. Cl.)” value in series [1] was 5.83 mL/min/kg.

On to `N#Cc1ccc(COc2cccc(-c3cc(F)c(Cc4nc5c(F)cc(C(=O)O)cc5n4CCOC(F)F)cc3F)n2)c(F)c1` [Example 892], for which the EC50 at GLP-1R (setting [2]) amounted to 0.78 nM. The “Predicted Hepatic Clearance (Pred. Cl.)” value in series [1] was 5.5 mL/min/kg.

At GLP-1R (EC50 (nM)), `CC(C)(C)OCCn1c(Cc2cc(F)c(-c3cccc(OCc4ccc(C#N)cc4F)n3)cc2F)nc2ccc(C(=O)O)cc21` [Example 893, 1-(2-(tert-butoxy)ethyl)-2-(4-(6-((4-cyano-2-fluorobenzyl)oxy)pyridin-2-yl)-2,5-difluorobenzyl)-1H-benzo[d]imidazole-6-carboxylic acid] yielded an EC50 of 35.3 nM. In addition, the “Predicted Hepatic Clearance (Pred. Cl.)” value in series [1] was 1.83 mL/min/kg.

For the compound `N#Cc1ccc(COc2cccc(-c3cc(F)c(Cc4nc5c(F)cc(C(=O)O)cc5n4CCOC4CC4)cc3F)n2)c(F)c1` [Example 894], the EC50 at GLP-1R (setting [2]) is 2.68 nM. Moreover, the “Predicted Hepatic Clearance (Pred. Cl.)” value in series [1] was 4.17 mL/min/kg.

In the case of `N#Cc1ccc(COc2cccc(-c3cc(F)c(Cc4nc5ccc(C(=O)O)cc5n4CCNc4ccccc4)cc3F)n2)c(F)c1` [Example 895], the EC50 on GLP-1R (read-out: EC50) came to 79.9 nM. Also, in series [1], the “Predicted Hepatic Clearance (Pred. Cl.)” value is 8 mL/min/kg.

Consider `N#Cc1ccc(COc2cccc(-c3cc(F)c(Cc4nc5c(F)cc(C(=O)O)cc5n4C[C@@H]4CCO4)cc3F)n2)c(F)c1` [Example 896], for which the EC50 at GLP-1R (setting [2]) turned out to be 0.03 nM. For the same compound, the “Predicted Hepatic Clearance (Pred. Cl.)” value in series [1] is 4.5 mL/min/kg.

On to `N#Cc1ccc(COc2nccc(-c3cc(F)c(Cc4nc5ccc(C(=O)O)cc5n4CCOC4CC4)cc3F)n2)c(F)c1` [Example 897], for which the EC50 on GLP-1R (setting [2]) came out at 4.1 nM. In series [1], the “Predicted Hepatic Clearance (Pred. Cl.)” value was 2.17 mL/min/kg.

For the compound `N#Cc1ccc(COc2cccc(-c3cc(F)c(Cc4nc5ccc(C(=O)O)cc5n4CC45CC(CO4)C5)cc3F)n2)c(F)c1` [Example 898, 1-((2-oxabicyclo[2.1.1]hexan-1-yl)methyl)-2-(4-(6-((4-cyano-2-fluorobenzyl)oxy)pyridin-2-yl)-2,5-difluorobenzyl)-1H-benzo[d]imidazole-6-carboxylic acid], the 50% effective concentration (EC50) on GLP-1R (setting [2]) was found to be 1.5 nM. Also, in series [1], the “Predicted Hepatic Clearance (Pred. Cl.)” value was 9.67 mL/min/kg.

With `N#Cc1ccc(COc2ccc(F)c(-c3cc(F)c(Cc4nc5ccc(C(=O)O)cc5n4CCOC4CC4)cc3F)n2)c(F)c1` [Example 899], the half-maximal effective concentration (EC50) at GLP-1R (setting [2]) came out at 2.26 nM. Further, the “Predicted Hepatic Clearance (Pred. Cl.)” value in series [1] is 4 mL/min/kg.

For the compound `N#Cc1ccc(COc2nc(-c3cc(F)c(Cc4nc5ccc(C(=O)O)cc5n4CCOC4CC4)cc3F)ccc2F)c(F)c1` [Example 900], on GLP-1R (setting [2]), the EC50 was found to be 1.26 nM. Moreover, in series [1], the “Predicted Hepatic Clearance (Pred. Cl.)” value is 1.83 mL/min/kg.

`COCCn1c(Cc2cc(F)c(-c3cccc(OCc4ccc(C5=CCNCC5)cc4F)n3)cc2F)nc2ccc(C(=O)O)cc21` [Example 901, 2-(2,5-difluoro-4-(6-((2-fluoro-4-(1,2,3,6-tetrahydropyridin-4-yl)benzyl)oxy)pyridin-2-yl)benzyl)-1-(2-methoxyethyl)-1H-benzo[d]imidazole-6-carboxylic acid]: the EC50 at GLP-1R (setting [2]) was 160 nM. In addition, the “Predicted Hepatic Clearance (Pred. Cl.)” value in series [1] is 4.5 mL/min/kg.

With `COCCn1c(Cc2cc(F)c(-c3cccc(OCc4ccc(C5=CCN(C(C)=O)CC5)cc4F)n3)cc2F)nc2ccc(C(=O)O)cc21` [Example 902, 2-(4-(6-((4-(1-acetyl-1,2,3,6-tetrahydropyridin-4-yl)-2-fluorobenzyl)oxy)pyridin-2-yl)-2,5-difluorobenzyl)-1-(2-methoxyethyl)-1H-benzo[d]imidazole-6-carboxylic acid], at GLP-1R (setting [2]), the EC50 is 6.19 nM. Further, the “Predicted Hepatic Clearance (Pred. Cl.)” value in series [1] is 8.67 mL/min/kg.

Consider `COCCn1c(Cc2ccc(-c3cccc(OCc4ccc(C#N)cc4F)n3)c3c2COC3)nc2ccc(C(=O)O)cc21` [Example 903, 2-((7-(6-((4-cyano-2-fluorobenzyl)oxy)pyridin-2-yl)-1,3-dihydroisobenzofuran-4-yl)methyl)-1-(2-methoxyethyl)-1H-benzo[d]imidazole-6-carboxylic acid], for which the EC50 on GLP-1R (setting [2]) is 107 nM. In series [1], the “Predicted Hepatic Clearance (Pred. Cl.)” value was 1.83 mL/min/kg.

In the case of `CC(C)(C)OC(=O)N(CCn1c(Cc2cc(F)c(-c3cccc(OCc4ccc(C#N)cc4F)n3)cc2F)nc2ccc(C(=O)O)cc21)C1CC1` [Example 907, 1-(2-((tert-butoxycarbonyl)(cyclopropyl)amino)ethyl)-2-(4-(6-((4-cyano-2-fluorobenzyl)oxy)pyridin-2-yl)-2,5-difluorobenzyl)-1H-benzo[d]imidazole-6-carboxylic acid], at GLP-1R (read-out: EC50), the concentration for a half-maximal effect (EC50) worked out at 9960 nM. The “Predicted Hepatic Clearance (Pred. Cl.)” value in series [1] is 8.5 mL/min/kg.

As to `COCCn1c(Cc2cc(F)c(-c3cccc(OCc4cccc(-c5ccccn5)c4)n3)cc2F)nc2ccc(C(=O)O)cc21` [Example 908], the EC50 on GLP-1R (setting [2]) turned out to be 6.68 nM. For the same compound, the “Predicted Hepatic Clearance (Pred. Cl.)” value in series [1] is 5.17 mL/min/kg.

In the case of `COCCn1c(Cc2cc(F)c(-c3cccc(OCc4cccc(-c5ncccn5)c4)n3)cc2F)nc2ccc(C(=O)O)cc21` [Example 909], the EC50 on GLP-1R (setting [2]) was 2.25 nM. In addition, the “Predicted Hepatic Clearance (Pred. Cl.)” value in series [1] was 3.67 mL/min/kg.

`COCCn1c(Cc2cc(F)c(-c3cccc(OCc4ccc(-c5ccccn5)cc4F)n3)cc2F)nc2ccc(C(=O)O)cc21` [Example 910]: the EC50 on GLP-1R (setting [2]) worked out at 33.4 nM. For the same compound, the “Predicted Hepatic Clearance (Pred. Cl.)” value in series [1] was 2.83 mL/min/kg.

On to `COCCn1c(Cc2cc(F)c(-c3cccc(OCc4ccc(-c5ncccn5)cc4F)n3)cc2F)nc2ccc(C(=O)O)cc21` [Example 911, 2-[[2,5-difluoro-4-[6-[(2-fluoro-4-pyrimidin-2-yl-phenyl)methoxy]-2-pyridyl]phenyl]methyl]-3-(2-methoxyethyl)benzimidazole-5-carboxylic acid], for which, at GLP-1R (setting [2]), the EC50 was found to be 55.6 nM. Also, the “Predicted Hepatic Clearance (Pred. Cl.)” value in series [1] is 1.83 mL/min/kg.

For `COCCn1c(Cc2cc(F)c(-c3cccc(OCc4ccc(-c5cc[nH]c(=O)c5)cc4F)n3)cc2F)nc2ccc(C(=O)O)cc21` [Example 912], the EC50 on GLP-1R (setting [2]) was determined as 15.3 nM. In series [1], the “Predicted Hepatic Clearance (Pred. Cl.)” value was 1.83 mL/min/kg.

For the compound `COCCn1c(Cc2cc(F)c(-c3cccc(OCc4cccc(-c5cnn(C)c5)c4)n3)cc2F)nc2ccc(C(=O)O)cc21` [Example 913], at GLP-1R (setting [2]), the EC50 turned out to be 112 nM. Moreover, the “Predicted Hepatic Clearance (Pred. Cl.)” value in series [1] is 3.83 mL/min/kg.

As to `COCCn1c(Cc2cc(F)c(-c3cccc(OCc4cccc(-c5ccn(C)n5)c4)n3)cc2F)nc2ccc(C(=O)O)cc21` [Example 914], the EC50 on GLP-1R (setting [2]) was found to be 51.5 nM. For the same compound, in series [1], the “Predicted Hepatic Clearance (Pred. Cl.)” value was 6 mL/min/kg.

The EC50 is the concentration giving half of the maximal effect.
